Measured values reported in the METLIN SMRT retention time set (Domingo-Almenara et al. 2019).

Test: gradient 5% acetonitrile 3 min, to 50% in 2 min, to 85% in 15 min, held 3 min, 100 µL/min
Conditions: column: Zorbax Extend-C18 2.1 x 50 mm; eluents: water / acetonitrile, 0.1% formic acid
Summary of the method: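 In both positive and negative ionization mode, a quadrupole time-of-flight mass spectrometer coupled to HPLC analyzed pure standards run in mixtures of ~100 molecules. The Zorbax Extend-C18 column (2.1 × 50 mm, 1.8 μm) was operated at 100 μL/min with water and acetonitrile, each containing 0.1% formic acid. The dead volume was 40 μL and the dwell volume 900 μL. Retention time came from adduct peaks that were computationally picked and individually inspected by hand.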

Row | SMILES | RP-LC retention time
1 | CCN1CCN(CCCNc2ccc(-c3nc(-c4cccc(F)c4)no3)cn2)CC1 | 634 s
2 | O=C(NCCc1ccco1)C1CCN(Cc2cc3ccccc3n2Cc2cccc(Cl)c2)CC1 | 813 s
3 | Cc1csc(-c2cc(S(=O)(=O)NCCN3CCOCC3)cn2CC(=O)N2CCCCC2)n1 | 654 s
4 | CC(C)(C)c1csc(-c2csc(S(=O)(=O)NCCN3CCc4ccccc4C3)c2)n1 | 846 s
5 | CC1CCCCN1CCNC(=O)c1c2c(cn(-c3ccc(Cl)cc3)c1=O)C(=O)CC(C)(C)C2 (configuration not stated) | 710 s
6 | COC(=O)c1cnc2nc(C)ccc2c1Nc1cc(OC)ccc1OC | 667 s
7 | COc1ccc(C2CCCN2C(=O)Cn2nc(C(F)(F)F)cc2C)cc1 (configuration not stated) | 953 s
8 | COc1ccc(-c2noc(CSc3nccn3-c3ccc(C)cc3)n2)cc1 | 926 s
9 | COc1ccccc1CCC(=O)NCC(=O)Nc1nc2ccccc2[nH]1 | 652 s
10 | O=C(N[C@@H]1CN(c2ccncn2)C[C@H]1CO)c1nccc2ccccc12 | 581 s
11 | COc1ccc(-c2oc3ccc(OC)cc3c2C(=O)NCCN2CCOCC2)cc1 | 591 s
12 | CCn1c(C(=O)Nc2cc(Cl)ccc2C)cc2sc(Cl)cc21 | 1310 s
13 | O=C(CN1C(=O)C(C(=O)N2CCCCC2)Sc2ccccc21)N1CCN(c2ccccc2F)CC1 (configuration not stated) | 960 s
14 | Cc1cc(Cl)ccc1NC(=O)N1C[C@H](c2nc(-c3cccnc3)no2)[C@@H](C)C1 | 827 s
15 | COCCNC(=O)C1CCCN(C(=O)c2[nH]c(C)cc2C)C1 (configuration not stated) | 644 s
16 | Cc1ccc2nc(-c3ccccc3)c(Nc3ccccc3C)n2c1 | 726 s
17 | O=S(=O)(CCc1noc(C2COc3ccccc3O2)n1)c1ccccc1 (configuration not stated) | 927 s
18 | N#Cc1cccc(NC(=O)Cn2nc3n(c2=O)CCCCC3)c1 | 674 s
19 | Cn1c(=O)n([C@H]2CCN(S(=O)(=O)c3ccc(F)cc3)C2)c2ncccc21 | 805 s

Row | SMILES | RP-LC retention time
20 | CN1C(=O)c2cc(C(=O)Nc3ccccc3Br)nn2CC1(C)C(=O)NC1CCCCC1 (configuration not stated) | 807 s
21 | CC1Oc2ccc(-c3csc(NS(C)(=O)=O)n3)cc2NC1=O (configuration not stated) | 609 s
22 | O=c1c2cnn(-c3ccc(F)cc3)c2ncn1Cc1nc(-c2ccc(Br)cc2)no1 | 1140 s
23 | Cc1ccc(Nc2c(-c3cccc(Cl)c3)nc3cc(C)ccn23)cc1 | 890 s
24 | COc1ccc(-c2cn3ccn(-c4ccc(F)c(Cl)c4)c(=O)c3n2)cc1OC | 804 s
25 | COC(=O)C1=CN(c2ccc(Cl)cc2)c2ccccc2S1(=O)=O | 864 s
26 | Cc1nnc(N2CCC(C(=O)NCCN3CCOCC3)CC2)c2nn(-c3ccc(Cl)cc3)c(C)c12 | 571 s
27 | CCOc1ccc(S(=O)(=O)N2CCC(C(=O)NCCC3=CCCCC3)CC2)cc1 | 953 s
28 | Cc1nc(-c2cccnc2)nc2c1CCC(=O)N2Cc1cccs1 | 740 s
29 | CC(=O)Nc1c(C)nn(-c2ccccc2)c1N1CCC(C(=O)NCC2COCCO2)CC1 (configuration not stated) | 605 s
30 | O=C(Nc1ccc(-n2cnc(C(=O)N3CCc4ccccc4C3)c2)nc1)C1CC1 | 733 s
31 | CC(C)c1ccc(Nc2c(-c3ccccc3O)nc3ncccn23)cc1 | 800 s
32 | CC1CCN(S(=O)(=O)c2nn(C)cc2C(=O)O)CC1 | 707 s
33 | CCN1C(=O)C2(CCN(S(=O)(=O)CC)CC2)c2ccccc21 | 774 s
34 | CCN(CC)Cc1ccc2c(c1)CN(C(=O)NC1CCCC1)CCO2 | 558 s
35 | Cn1nc(-c2nc(C3CC3)no2)c2c1CCN(C(=O)c1c(F)cccc1Cl)C2 | 837 s
36 | Cc1ccc2cc(CCC(=O)NCCN3CCOCC3)c(=O)[nH]c2c1 | 594 s
37 | CCCOc1nc2ccccc2nc1N1CCCC(C(=O)NC2CCCCC2)C1 (configuration not stated) | 1260 s
